Measurements taken from patent US20240383853A1, “OXIMES AND THEIR USE IN TREATMENT OF GBA-RELATED DISEASES” (ZEVRA DENMARK A/S, priority 2021, published 2024).

Biological target: T1, glucosylceramidase (GCase, GBA) in human fibroblast cell line GM10915 harboring the L444P GBA mutation (Homo sapiens, UniProt P04062, L483P)
T1 construct: Human fibroblast cell line GM10915 harboring the L444P GBA mutation; host or cells: GM10915 human fibroblasts
T1 sequence (P04062 40-536 L483P): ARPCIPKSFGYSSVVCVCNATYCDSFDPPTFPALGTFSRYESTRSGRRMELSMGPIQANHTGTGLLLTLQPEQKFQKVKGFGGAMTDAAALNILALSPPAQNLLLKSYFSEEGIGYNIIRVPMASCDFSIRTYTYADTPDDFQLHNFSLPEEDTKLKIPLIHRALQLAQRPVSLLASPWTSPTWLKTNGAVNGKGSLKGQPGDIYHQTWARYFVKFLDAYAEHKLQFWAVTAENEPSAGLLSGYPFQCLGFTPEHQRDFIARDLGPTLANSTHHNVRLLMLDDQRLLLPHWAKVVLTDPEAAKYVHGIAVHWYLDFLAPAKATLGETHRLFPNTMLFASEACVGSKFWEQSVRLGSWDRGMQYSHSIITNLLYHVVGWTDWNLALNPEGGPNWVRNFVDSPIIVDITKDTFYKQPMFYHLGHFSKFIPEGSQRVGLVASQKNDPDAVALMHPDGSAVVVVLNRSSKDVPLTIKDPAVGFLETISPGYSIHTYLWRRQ
Experiment: GCase activity assay (4-MUG substrate, normalised to crystal violet staining) in GM10915 fibroblasts
Type: cell-based
Details: five days exposure; for GBA EC1.5: concentration where Percent GCase activity = 150% (1.5-fold induction), 8-point dose range; for Emax / GBA Emax: maximum Percent GCase activity relative to untreated cells in the dose range tested
Method: Human fibroblast cell line GM10915 harboring the L444P GBA mutation was obtained from Coriell Biorepositories. All chemicals (Glacial acetic acid, Glycine, 4-Methylumbelliferyl b-D-glucopyranoside (4-MUG), Sodium acetate trihydrate, Sodium hydroxide, Crystal violet, SDS, Ammonium hydroxide) were obtained from Sigma-Aldrich (Denmark). Compounds tested for GCase activity were dissolved in H2O or DMSO.
The GM10915 cell line was cultured under standard cell culture conditions (37° C. and 5% CO2) in complete DMEM medium supplemented with nonessential amino acids (NEAA), 1% Pen-Strep and 12% FCS. Cells were seeded at a density of 10^4 cells/well in 100 μL complete medium in one black 96-well plate for glucosylceramidase (GCase) activity measurement and in one clear 96-well plate for crystal violet staining to correct for cell density. Crystal violet staining is performed to obtain quantitative information about the relative density of cells adhering to multi-wells plates.
The assay was adapted from Sawkar et al (2002) and briefly described in the following. The day after seeding of cells, the medium was replaced with fresh medium containing the compounds to be tested. Compounds were tested in duplicate and in an 8-point diluted dose range to obtain a dose response. Cells were exposed with compounds for five days. Fresh compound was added every 2-3 days. PBS was included to define the basal level of GCase activity.
Cells were washed three times with 200 μL PBS per well and 50 μL of 2.5 mM 4-MUG buffer (4-MUG dissolved in 0.2 M acetate buffer pH 4.0) was added and the cells were incubated at 37° C., 5% CO2 for 23 hours. The reaction was stopped by adding 150 μL 0.2 M glycine buffer (pH 10.8). Fluorescence was measured with a Varioskan® Flash reader (Thermo Scientific) at an excitation/emission setting of 365/445 nm.
Cells were treated with compounds in a parallel setup identical to the setup to test for GCase activity. At the end of compound treatment, cells were washed once with 200 μL PBS per well and 50 μL 0.1% w/v crystal violet (in H2O) was added. Following 10 min. of incubation, the crystal violet solution was removed, and the cells were washed three times with 200 μL PBS and 100 μL 1% SDS was added to solubilize the stain. The plate was agitated on an orbital shaker for 10-30 min. Absorbance (A) is measured at […] using a Varioskan® Flash reader (Thermo Scientific).
The fluorescence signal (F) derived from the GCase measurement is normalized to the absorbance signal (A) derived from the crystal violet staining. The percent GCase activity resulting from compound treatment is calculated relative to the basal activity obtained from untreated cells.
Maximal effect of compounds (Emax) is determined from the dose response effects as the maximum “Percent GCase activity” achieved in the dose range tested.

Row | Compound | GBA EC1.5 | Emax | GBA EC1.5 (listed as 550) | GBA Emax (listed as 550) | GBA Emax
1 | OC(CON=C(Cl)C1(c2ccccn2)CCNCC1)CN1CCCCC1 (stereo not drawn) [ID 534, N-(2-hydroxy-3-(piperidin-1-yl)propoxy)-4-(pyridin-2-yl)piperidine-4-carbimidoyl chloride tri-2,2,2-trifluoroacetate] | 19 µM | 226% | – | – | –
2 | OC(CO/N=C(\Cl)C1(Cc2cccnc2)CCNCC1)CN1CCCCC1 (stereo not drawn) [ID 550] | – | – | 27 µM | 159% | –
3 | OC(CON=C(Cl)CCN1CCCC1)CN1CCCCC1 (stereo not drawn) [ID 562, N-(2-hydroxy-3-(piperidin-1-yl)propoxy)-3-(pyrrolidin-1-yl)propanimidoyl chloride] | 3 µM | 239% | – | – | –
4 | OC(CON=C(Cl)CCN1CCCCC1)CN1CCCCC1 (stereo not drawn) [ID 563, N-(2-hydroxy-3-(piperidin-1-yl)propoxy)-3-(piperidin-1-yl)propanimidoyl chloride] | 3 µM | 211% | – | – | –
5 | OC(CO/N=C(\Cl)CCN1CCNCC1)CN1CCCCC1 (stereo not drawn) [ID 593] | 50 µM | 136% | – | – | –
6 | CN(CC/C(Cl)=N\OCC(O)CN1CCCCC1)C(=O)OC(C)(C)C (stereo not drawn) [ID 599, tert-butyl (3-chloro-3-((2-hydroxy-3-(piperidin-1-yl)propoxy)imino)propyl)(methyl)carbamate] | 48 µM | 136% | – | – | –
7 | CCCCCO[C@H]1CC[C@H](NC(=O)c2cnn3c(C)cc(C)nc23)CC1 [LTI-291, reference compound] | 112 µM | 232% | – | – | –
8 | N-(2-hydroxy-3-(piperidin-1-yl)propoxy)-4-((6-methoxy-2-methylpyridin-3-yl)methyl)piperidine-4-carbimidoyl chloride tri-2,2,2-trifluoroacetate [ID 524] | 1 µM | – | – | – | 149%
9 | N-(2-hydroxy-3-(piperidin-1-yl)propoxy)-4-((6-methylpyridin-3-yl)methyl)piperidine-4-carbimidoyl chloride tri-2,2,2-trifluoroacetate [ID 493] | 18 µM | – | – | – | 279%
